In data set [1] the test system is IL-12 induction of IFN-γ in PHA-activated human PBMC. In words: Screening assay for compounds which inhibit IL-12 induction of IFN-γ (ELISA). The conditions noted are these: 5 μg/ml, IL-2 25 U/ml + IL-12 0.5 ng/ml, 48 hr, single test, read-out: % INH of IFNγ. Format: cell-based. How it is done:
Human peripheral blood monocytes (PBMC) were obtained from commercial sources as a leukophoresis from a healthy volunteer and were purified by centrifugation on a Ficoll-Hypaque (Pharmacia) gradient (1700 rpm for 20 min). The "buffy" coat containing the PBMC was diluted with serum-free culture medium (SF-RPMI) to a volume of 50 ml and collected by centrifugation at 1500 rpm for 5 min. Cells were resuspended in cell culture medium containing 10% fetal bovine serum (RPMI-10) and phytohemaglutinin (PHA - 10 μg/ml) at a density of 5×10^6 cells/ml and were cultured for 3 days at 37° C. in a humidified CO2 incubator. The PHA-activated cells were collected by centrifugation, washed three times with an equal volume of SF-RPMI and resuspended in fresh RPMI-10 (1×10^6 cells /ml). Aliquots (100 μl) were dispensed into the wells of multiple 96-well plates to give a final cell number of 10^5 per well. Test compounds, dissolved in dimethyl sulfoxide (DMSO) at 1 mg/ml, were first diluted in culture medium to an intermediate concentration of 20 μg/ml and then were added (50 μwell) to a specific well of the plate for each compound. Stimulation medium (50 μl/well) containing 10% serum, IL-2 and IL-12 was added to final concentrations of 25 U/ml and 0.5 ng/ml, respectively. Control wells receive no IL-2 or IL-12 (negative control) or received both interleukins but no test compound (positive control). The plates were incubated for 48 hr at 37° C. in a CO2 incubator at which time aliquots (20 μl) were removed for analysis of IFN-γ concentration by ELISA. A quantitative ELISA was developed by coating 96-well plates with an mouse monoclonal antibody against human IFN-γ, 1 μg/ml in phosphate buffered saline (PBS) (Pestka Biological Laboratories), overnight at 4° C. Unbound antibody was washed off by washing three times with PBS. Non-specific antibody binding was blocked with a solution of 1% bovine serum albumin (BSA) and 1% goat serum in PBS (150 μl/well) which was incubated for 2 hr at 37° C. After washing the blocked plates four times with PBS, test samples and dilutions of the IFN-γ standard are added in a final volume of 100 μl/well. Following an overnight incubation at 4° C., the plates are washed four times with PBS, and a polyclonal rabbit antiserum against human IFN-γ (1/10000 dilution--Petska Biological Laboratories) is added. After an additional incubation for 1 hr at 37° C. and four washes with PBS, a polyclonal donkey anti-rabbit detecting antibody, conjugated to horseradish peroxidase (1/700 dilution--Petska Biological Laboratories) is added for 1 hr at 37° C. The plates are then washed four times with PBS and 100 μl of K-blue substrate E(ILISA Technologies, Neogen Corp.) is added until the color in the wells containing the standard curve is sufficiently developed, at which time 100 μl of "Red-stop" solution (ELISA Technologies) is added. The absorbance of the solution within each well of the plate is then read at 650 nm using an ELISA plate reader (Dynatech MR7000). The amount of IFN-γ is calculated by comparing the optical density of the test sample with a standard curve derived from the dilutions of the control IFN-y. The amount of IFN-γ that is induced in the presence of both IL-2 and IL-12 generally ranges from 1200-2000 pg/ml while the amount produced in the absence of IL-12 is generally less than 50 pg/ml. Experimental data are shown in Table 2 which discloses a) the percent inhibition of IFNγ production, relative to a […], when the cells have been treated with a bis-compound at a final concentration of 5 μg/ml of the listed bis-compound (%INH or IFNγ) and b) the percent of cells which are viable after the treatment with 5 μg/ml of the various bis-compounds, determined by adding MTS to the media (% Viability). MTS is a chemical chromophore that is metabolized in the mitochondria of viable cells to produce a color which increases in intensity in proportion to the numbers of viable cells. […]
On the technique in general: An ELISA detects its analyte on a solid surface through an enzyme-linked reagent.

Data set [2] concerns T cell response of human PBMC to allogenic stimulation by Namalwa cells. In words: Mixed Lymphocyte Reaction (proliferation and IFN-γ secretion). The conditions noted are these: 6 days; FIGS. 1-3. It is filed as cell-based. How it is done: This reaction measures the T cell response to allogenic stimulation by a mismatch of class II histocompatability antigens. This is triggered through the T cell receptor and activates the T cell to secrete and proliferate in response to endogenous IL-2. IFN-γ is also made in response to this stimulation and accumulates in the culture medium. Compounds are tested for their ability to block the proliferation and response to antigenic stimulation as well as their ability to produce IFN-γ as follows. A human B cell ine expressing class II antigen, Namalwa (American Type Culture Collection), is incubated for 2 hr at 37° C. in RPMI-10 containing mitomycin C (50 μg/ml). These cells are washed four times by centrifugation and resuspension (10^6 cells/ml) in SF-RPMI medium and are added to the wells of 96-well plate (50 μl/well) as stimulators. Mitomycin treatment prevents these cells from proliferating in the assay. Fresh PBMC are prepared as described above in example 1, but are not activated with PHA. Instead they are resuspended at 10^6 cells/ml and 100 μl is added per well. Dilutions of test compounds are added (50 μl/well) to give a final volume of 200 μl and the plates are incubated for 6 days at 37° C. During the last 18 hr, ^3 H-thymidine (DuPont-NEN- 1 μCi/well) is added as a measure of cell proliferation, cultures are collected using a cell harvester (Packard), and scintillation fluid is added prior to counting in a Packard Top Count scintillation counter. A sample of medium is also collected for measurement of IFN-γ production prior to the addition of ^3 H-thymidine for use as a negative control.

Another data set concerns mice. In words: Toxicity of bis-compounds after single systemic dose. Format: in vivo. The conditions noted are these: 20% DMSO, 16% cremaphor.
Experiment in data set [3]: as above
Format: in vivo. The conditions noted are these: mouse, in vivo, iv, 20% DMSO, 16% cremaphor, single dose.

The text below walks through data of patent US5880146A, “Inhibition of IL-12-induced IFN-γ synthesis by specific bis-phenol compounds as a method of immune modulation” (Fuji ImmunoPharmaceuticals Corporation, priority 1995, dated 1999).

With `CCCCCCCC(c1cc(C)cc(C)c1O)c1cc(C)cc(C)c1O` [Compound 51852], in data set [1], the inhibition at 5 µg/mL was 109%. The “inhibition of IFN-γ secretion versus cell proliferation (in words)” value in data set [2] is on record as “more potent inhibitors of secretion at concentrations that do not effect cell proliferation”.
What is called LD50 is the dose at which mortality reaches 50%. A high value points to lower toxicity. `Cc1cc(C)c(O)c(C(CC(C)CC(C)(C)C)c2cc(C)cc(C)c2O)c1` (stereo not shown) [Compound 51853, bis-1,1-[2-hydroxy-3,5-dimethylphenyl]-3,5,5-dimethyl hexan]: in data set [1], the inhibition at 5 µg/mL was determined as 104%. Besides, in data set [2], the “inhibition of IFN-γ secretion versus cell proliferation (in words)” value is given as “more potent inhibitors of secretion at concentrations that do not effect cell proliferation”. For the same molecule, the “Results (Dead/Alive)” value in the data set on mice (100 mg/kg IV, 10 mg/ml) was “Alive”; in the data set with mice (150 mg/kg IV, 10 mg/ml), “Dead”; in the data set on mice (150 mg/kg IV, 15 mg/ml) it was “Alive”; in the data set on mice (200 mg/kg IV, 15 mg/ml) it was “Alive”. Besides, the LD50 in data set [3] (conc. sol. 10 mg/ml) is 100 to 150 mg/kg; in data set [3] (conc. sol. 15 mg/ml), more than 200 mg/kg.
